Experimental findings from patent US20100190843A1, “Tubulin Isotype Screening in Cancer Therapy Using Halichondrin B Analogs” (Eisai R&D Management Co., Ltd., priority 2004, published 2010) are described below.

One assay has as its system AU565. As to the kind of experiment: Cell growth inhibition assay (methylene blue-based). The following applies: Homo sapiens, continuous exposure 4 or 7 days, at least three experiments. From the text: (§1) The following human breast cancer cell lines were obtained from the ATCC. Cells were maintained according to ATCC-recommended culture conditions. AU565 (ATCC Catalog No. ATCC Catalog No. CRL-2351), BT-20 (ATCC Catalog No. HTB-19), MCF7 (ATCC Catalog No. HTB22), MDA-MB-231 (ATCC Catalog No. HTB-26), MDA-MB-435 (ATCC Catalog No. HTB-129), MDA-MB-468 (ATCC Catalog No. HTB-132), HCC38 (ATCC Catalog No. CRL-2314), HCC70 (ATCC Catalog No. CRL-2315), HCC1143 (ATCC Catalog No. CRL-2321), HCC1428 (ATCC Catalog No. CRL-2327), HCC1500 (ATCC Catalog No. CRL-2329), HCC1806 (ATCC Catalog No. CRL-2335), HCC1954 (ATCC Catalog No. CRL-2338), HCC2218 (ATCC Catalog No. CRL-2343), UACC-812 (ATCC Catalog No. CRL-1897), UACC-893 (ATCC Catalog No. CRL-1902), ZR-75-1 (ATCC Catalog No. CRL-1500), ZR-75-30 (ATCC Catalog No. CRL-1504).
(§2) Cultured human breast cancer cells were placed in 96-well plates and grown in the continuous presence of test compounds for 4 or 7 days. To expose the cells to test compounds for 7 days, medium was replaced with fresh medium containing compounds after 4 days of exposure and cells were incubated for 3 additional days. Cell growth was assessed using modifications (Amin et al., Cancer Res., 47:6040-6045, 1987; incorporated herein by reference) of a methylene blue-based microculture assay (Finlay et al., Anal. Biochem., 139:272-277, 1984; incorporated herein by reference).
(§3) To investigate the possible expression of PgP by the cell lines used in this study, the antiproliferative effects of paclitaxel were determined in the presence and absence of verapamil, a known inhibitor of PgP.

In another assay the test system is BT-20. The description is as above. The conditions noted are these: Homo sapiens, continuous exposure 4 or 7 days, at least three experiments.
Source text: as §1, §2, §3

The test system of a further assay is HC-2218. The assay is described as above. The conditions noted are these: Homo sapiens, continuous exposure 4 or 7 days, at least three experiments.
Source text: as §1, §2, §3

A further assay has as its system HCC1143. The description is as above. The conditions noted are these: Homo sapiens, continuous exposure 4 or 7 days, at least three experiments.
Source text: as §1, §2, §3

The subject of the next assay is HCC1428. The assay is described as above. The following applies: Homo sapiens, continuous exposure 4 or 7 days, at least three experiments.
Source text: as §1, §2, §3

Another assay has as its system HCC1500. Described as above. The following applies: Homo sapiens, continuous exposure 4 or 7 days, at least three experiments.
Source text: as §1, §2, §3

For a further assay, the system named is HCC1806. The description is as above. The following applies: Homo sapiens, continuous exposure 4 or 7 days, at least three experiments.
Source text: as §1, §2, §3

The next assay has as its system HCC1954. The description is as above. The following applies: Homo sapiens, continuous exposure 4 or 7 days, at least three experiments.
Source text: as §1, §2, §3

For another assay, the system named is HCC38. The description is as above. The conditions noted are these: Homo sapiens, continuous exposure 4 or 7 days, at least three experiments.
Source text: as §1, §2, §3

The test system of a further assay is HCC70. The description is as above. The conditions noted are these: Homo sapiens, continuous exposure 4 or 7 days, at least three experiments.
Source text: as §1, §2, §3

A further assay relates to MCF-7. Described as above. The following applies: Homo sapiens, MCF7, continuous exposure 4 or 7 days, at least three experiments.
Source text: as §1, §2, §3

The next assay relates to MDA-MB-231. Described as above. The conditions noted are these: Homo sapiens, continuous exposure 4 or 7 days, at least three experiments.
Source text: as §1, §2, §3

The next assay concerns MDA-MB-435. The assay is described as above. The conditions noted are these: Homo sapiens, continuous exposure 4 or 7 days, at least three experiments.
Source text: as §1, §2, §3

Another assay has as its system MDA-MB-468. Described as above. The conditions noted are these: Homo sapiens, continuous exposure 4 or 7 days, at least three experiments.
Source text: as §1, §2, §3

The next assay concerns UACC-812. The assay is described as above. The conditions noted are these: Homo sapiens, continuous exposure 4 or 7 days, at least three experiments.
Source text: as §1, §2, §3

In the next assay the test system is UACC-893. The assay is described as above. The conditions noted are these: Homo sapiens, continuous exposure 4 or 7 days, at least three experiments.
Source text: as §1, §2, §3

The subject of the next assay is ZR-75-1. The description is as above. The following applies: Homo sapiens, continuous exposure 4 or 7 days, at least three experiments.
Source text: as §1, §2, §3

Another assay relates to ZR-75-30. The description is as above. The conditions noted are these: Homo sapiens, continuous exposure 4 or 7 days, at least three experiments.
Source text: as §1, §2, §3

The next assay relates to HCC1419. The description is as above. The following applies: Homo sapiens, continuous exposure 4 or 7 days, at least three experiments.
The test system of assay [1] is panel of 19 human breast cancer cell lines. As to the kind of experiment: Cell growth inhibition assay, whole panel. Format: cell-based.
Source text: as §1
Cultured human breast cancer cells were placed in 96-well plates and grown in the continuous presence of test compounds for 4 or 7 days. […] Cell growth was assessed using modifications (Amin et al., Cancer Res., 47:6040-6045, 1987; incorporated herein by reference) of a methylene blue-based microculture assay (Finlay et al., Anal. Biochem., 139:272-277, 1984; incorporated herein by reference).
Antiproliferative effects of four tubulin-binding anticancer agents were evaluated by a methylene blue-based cell growth inhibin assay in a panel of 19 human breast cancer cell lines. […]

In general, IC50 refers to the midpoint of a concentration-inhibition curve. Higher therefore signals a need for much substance. As for `C=C1C[C@@H]2CC[C@@]34C[C@H]5O[C@H]6[C@@H](O3)C3O[C@H](CCC3O[C@H]6C5O4)CC(=O)CC3[C@H](CC4O[C@@H](CCC1O2)C[C@@H](C)C4=C)O[C@H](C[C@H](O)CN)[C@@H]3OC` (stereo partly drawn) [E7389], the IC50 with AU565 was determined as 0.65 nM; in the assay with BT-20, 0.82 nM; in the assay with HC-2218, 1.14 nM; with HCC1143, 0.43 nM; in the assay with HCC1428, 0.53 nM; in the assay with HCC1500 it was 0.56 nM. Moreover, the IC50 stood at 0.74 nM with HCC1806; 0.37 nM in the assay with HCC1954; 0.4 nM in the assay on HCC38; 0.63 nM in the assay with HCC70; 1.45 nM with MCF-7; 1.75 nM with MDA-MB-231. In addition, the IC50 in the assay on MDA-MB-435 was 0.29 nM; in the assay with MDA-MB-468 it was 0.45 nM; in the assay with UACC-812 it was 1.17 nM; in the assay on UACC-893 it was 0.31 nM; in the assay with ZR-75-1, 1.19 nM; with ZR-75-30 it was 1.8 nM. Moreover, the IC50 in the assay on HCC1419 is 1.59 nM; in assay [1] (Homo sapiens, range over the panel of 19 cell lines), 0.29 to 1.8 nM. The “fold-difference between IC50's in the most sensitive and the least sensitive cell line” value in assay [1] (panel of 19 breast cancer cell lines) is listed as 6.2 fold.
